# Assay results: patent publication US20240158446A1, “CYCLIC COMPOUND HAVING SELECTIVE INHIBITORY ACTION ON KRAS OVER HRAS AND NRAS” (CHUGAI SEIYAKU KABUSHIKI KAISHA, priority 2021, published 2024)
# How the values were obtained:
# [1] = tested on: human lung cancer strain NCI-H441; assay: cells; conditions: NCI-H441, 96 h, read-out: NCI-H441 IC50 (nM), NCI-H441 cell proliferation, 4 days, CellTiter-Glo;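 further: cell proliferation inhibition after four days measured by CellTiter-Glo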
# [2] = target: GDP-bound NRAS wild-type protein (Homo sapiens, UniProt P01111); assay: Binding to NRAS by surface plasmon resonance (SPR), Single Cycle Kinetics; conditions: ratio of KD for GDP-bound NRAS wild-type protein to KD for KRAS, SPR
# [3] = target: GDP-bound HRAS wild-type protein (Homo sapiens, UniProt P01112); assay: Binding to HRAS by surface plasmon resonance (SPR), Single Cycle Kinetics; conditions: ratio of KD for GDP-bound HRAS wild-type protein to KD for KRAS, SPR
# [4] = target: GDP-bound KRAS wild-type protein (Homo sapiens, UniProt P01116); assay: Binding to KRAS by surface plasmon resonance (SPR), Single Cycle Kinetics; conditions: SPR, Single Cycle Kinetics, GDP-bound KRAS wild-type protein; read-out: KRAS KD
# Chain of GDP-bound KRAS wild-type protein (P01116 whole entry): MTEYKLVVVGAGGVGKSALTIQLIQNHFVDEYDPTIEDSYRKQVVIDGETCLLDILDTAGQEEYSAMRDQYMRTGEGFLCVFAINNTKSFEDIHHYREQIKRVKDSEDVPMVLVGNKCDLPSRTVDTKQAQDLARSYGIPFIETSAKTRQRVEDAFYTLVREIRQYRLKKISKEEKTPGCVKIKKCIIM
# Chain of GDP-bound NRAS wild-type protein (P01111 whole entry): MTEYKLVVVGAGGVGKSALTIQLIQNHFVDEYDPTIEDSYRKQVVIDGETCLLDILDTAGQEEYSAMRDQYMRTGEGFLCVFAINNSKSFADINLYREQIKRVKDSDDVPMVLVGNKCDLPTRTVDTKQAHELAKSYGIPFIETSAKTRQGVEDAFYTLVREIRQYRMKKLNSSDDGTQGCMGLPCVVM
# Chain of GDP-bound HRAS wild-type protein (P01112 whole entry): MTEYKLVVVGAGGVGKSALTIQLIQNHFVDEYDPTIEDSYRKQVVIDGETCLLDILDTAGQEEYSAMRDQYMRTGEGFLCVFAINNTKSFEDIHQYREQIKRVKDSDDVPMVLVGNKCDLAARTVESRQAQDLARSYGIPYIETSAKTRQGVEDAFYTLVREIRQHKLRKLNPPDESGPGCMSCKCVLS
Compound,IC50 [1],NRAS/KRAS (KD ratio) [2],HRAS/KRAS (KD ratio) [3],Kd [4]
CC[C@H](C)[C@@H]1NC(=O)[C@H](CC)N(C)C(=O)C[C@@H](C(=O)N(C)CC)N(C)C(=O)[C@H](C2CCCC2)N(C)C(=O)C2(CC(C)(C)C2)NC(=O)[C@@H]2C[C@@H](C)CN2C(=O)[C@H](CCc2ccc(C(F)(F)F)c(OC)c2)NC(=O)CN(C)C(=O)[C@H](Cc2ccc(C)cc2)N2CC/C=C\C[C@@H](C2=O)N(C)C(=O)CN(C)C1=O [PP1870],12.4 nM,A (a compound having 10 or more and less than 20 is denoted as A),A (a compound having 10 or more and less than 20 is denoted as A),0.19 nM
CCC[C@H]1C(=O)N[C@@H]([C@@H](C)CC)C(=O)N(C)CC(=O)N(C)[C@H]2C/C=C\CCN(C2=O)[C@@H](Cc2ccc(C)cc2)C(=O)N(C)CC(=O)N[C@@H](CCc2ccc(C(F)(F)F)c(OC)c2)C(=O)N2C[C@H](OCC)C[C@H]2C(=O)NC2(CCC2)C(=O)N(C)[C@@H](C2CCCC2)C(=O)N(C)[C@H](C(=O)N(C)C)CC(=O)N1C [PP1871],13.1 nM,A (a compound having 10 or more and less than 20 is denoted as A),A (a compound having 10 or more and less than 20 is denoted as A),0.099 nM
CCO[C@@H]1C[C@H]2C(=O)NC3(CC(C)(C)C3)C(=O)N(C)[C@@H](C3CCCC3)C(=O)N(C)[C@H](C(=O)N(C)CC)CC(=O)N(C)[C@@H](CC)C(=O)N[C@@H]([C@@H](C)CC)C(=O)N(C)CC(=O)N(C)[C@H]3C/C=C\CCN(C3=O)[C@@H](Cc3ccc(C)cc3)C(=O)N(C)CC(=O)N[C@@H](CCc3ccc(C(F)(F)F)c(OC)c3)C(=O)N2C1 [PP1872],12.4 nM,A (a compound having 10 or more and less than 20 is denoted as A),A (a compound having 10 or more and less than 20 is denoted as A),0.12 nM
CCO[C@@H]1C[C@H]2C(=O)NC3(CC(C)(C)C3)C(=O)N(C)[C@@H](C3CCCC3)C(=O)N(C)[C@H](C(=O)N(C)C)CC(=O)N(C)[C@@H](CC)C(=O)N[C@@H]([C@@H](C)CC)C(=O)N(C)CC(=O)N(C)[C@H]3C/C=C\CCN(C3=O)[C@@H](Cc3ccc(C)cc3)C(=O)N(C)CC(=O)N[C@@H](CCc3ccc(C(F)(F)F)c(OC)c3)C(=O)N2C1 [PP1873],8.5 nM,A (a compound having 10 or more and less than 20 is denoted as A),B (a compound having 3 or more and less than 10 is denoted as B),0.075 nM
CC[C@H](C)[C@@H]1NC(=O)[C@H](CC)N(C)C(=O)C[C@@H](C(=O)N(C)CC)N(C)C(=O)[C@H](C2CCCC2)N(C)C(=O)C2(CC(C)(C)C2)NC(=O)[C@@H]2C[C@H](C)CN2C(=O)[C@H](CCc2ccc(C(F)(F)F)c(Cl)c2)NC(=O)CN(C)C(=O)[C@H](Cc2ccc(C)cc2)N2CC/C=C\C[C@@H](C2=O)N(C)C(=O)CN(C)C1=O [PP1874],9.9 nM,A (a compound having 10 or more and less than 20 is denoted as A),A (a compound having 10 or more and less than 20 is denoted as A),0.13 nM
CC[C@H](C)[C@@H]1NC(=O)[C@H](CC)N(C)C(=O)C[C@@H](C(=O)N(C)CC)N(C)C(=O)[C@H](C2CCCC2)N(C)C(=O)C2(CC(C)(C)C2)NC(=O)[C@@H]2C[C@@H](C)CN2C(=O)[C@H](CCc2ccc(C(F)(F)F)c(Cl)c2)NC(=O)CN(C)C(=O)[C@H](Cc2ccc(C)cc2)N2CC/C=C\C[C@@H](C2=O)N(C)C(=O)CN(C)C1=O [PP1876],23 nM,A (a compound having 10 or more and less than 20 is denoted as A),A (a compound having 10 or more and less than 20 is denoted as A),0.2 nM
CCO[C@@H]1C[C@H]2C(=O)NC3(CC(C)(C)C3)C(=O)N(C)[C@@H](C3CCCC3)C(=O)N(C)[C@H](C(=O)N(C)C)CC(=O)N(C)[C@@H](CC)C(=O)N[C@@H]([C@@H](C)CC)C(=O)N(C)CC(=O)N(C)[C@H]3C/C=C\CCN(C3=O)[C@@H](Cc3ccc(C)cc3)C(=O)N(C)CC(=O)N[C@@H](CCc3ccc(C(F)(F)F)c(Cl)c3)C(=O)N2C1 [PP1878],8.8 nM,A (a compound having 10 or more and less than 20 is denoted as A),A (a compound having 10 or more and less than 20 is denoted as A),0.063 nM
CCO[C@@H]1C[C@H]2C(=O)NC3(CCC3)C(=O)N(C)[C@@H](C3CCCC3)C(=O)N(C)[C@H](C(=O)N(C)CC)CC(=O)N(C)[C@@H](CC3CC3)C(=O)N[C@@H]([C@@H](C)CC)C(=O)N(C)CC(=O)N(C)[C@H]3C/C=C\CCN(C3=O)[C@@H](Cc3ccc(C)cc3)C(=O)N(C)CC(=O)N[C@@H](CCc3ccc(C(F)(F)F)c(OC)c3)C(=O)N2C1 [PP1879],16.9 nM,A (a compound having 10 or more and less than 20 is denoted as A),B (a compound having 3 or more and less than 10 is denoted as B),0.18 nM
CCO[C@@H]1C[C@H]2C(=O)NC3(CC(C)(C)C3)C(=O)N(C)[C@@H](C3CCCC3)C(=O)N(C)[C@H](C(=O)N(C)CC)CC(=O)N(C)[C@@H](CC)C(=O)N[C@@H]([C@@H](C)CC)C(=O)N(C)CC(=O)N(C)[C@H]3C/C=C\CCN(C3=O)[C@@H](Cc3ccc(C)cc3)C(=O)N(C)CC(=O)N[C@@H](CCc3ccc(C(F)(F)F)c(Cl)c3)C(=O)N2C1 [PP1880],15.6 nM,A (a compound having 10 or more and less than 20 is denoted as A),B (a compound having 3 or more and less than 10 is denoted as B),0.15 nM
CCO[C@@H]1C[C@H]2C(=O)NC3(CC(C)(C)C3)C(=O)N(C)[C@@H](C3CCCC3)C(=O)N(C)[C@H](C(=O)N(CC)CC)CC(=O)N(C)[C@@H](CC)C(=O)N[C@@H]([C@@H](C)CC)C(=O)N(C)CC(=O)N(C)[C@H]3C/C=C\CCN(C3=O)[C@@H](Cc3ccc(C)cc3)C(=O)N(C)CC(=O)N[C@@H](CCc3ccc(C(F)(F)F)c(OC)c3)C(=O)N2C1 [PP1881],16.7 nM,A (a compound having 10 or more and less than 20 is denoted as A),A (a compound having 10 or more and less than 20 is denoted as A),0.29 nM
CCO[C@@H]1C[C@H]2C(=O)NC3(CC(C)(C)C3)C(=O)N(C)[C@@H](C3CCCC3)C(=O)N(C)[C@H](C(=O)N(CC)CC)CC(=O)N(C)[C@@H](CC)C(=O)N[C@@H]([C@@H](C)CC)C(=O)N(C)CC(=O)N(C)[C@H]3C/C=C\CCN(C3=O)[C@@H](Cc3ccc(C)cc3)C(=O)N(C)CC(=O)N[C@@H](CCc3ccc(C(F)(F)F)c(Cl)c3)C(=O)N2C1 [PP1883],24 nM,A (a compound having 10 or more and less than 20 is denoted as A),A (a compound having 10 or more and less than 20 is denoted as A),0.28 nM
CC[C@H](C)[C@@H]1NC(=O)[C@H](CC(C)C)N(C)C(=O)C[C@@H](C(=O)N(CC)CC)N(C)C(=O)[C@H](C2CCCC2)N(C)C(=O)C2(CCC2)NC(=O)[C@@H]2C[C@H](C)CN2C(=O)[C@H](CCc2ccc(C(F)(F)F)c(OC)c2)NC(=O)CN(C)C(=O)[C@H](Cc2ccc(C)cc2)N2CC/C=C\C[C@@H](C2=O)N(C)C(=O)CN(C)C1=O [PP1885],18.3 nM,AA (a compound having 20 or more is denoted as AA),A (a compound having 10 or more and less than 20 is denoted as A),0.23 nM
